In patent US20040192594A1 (priority 2002, published 2004):
Like-named read-outs stand apart in the source and are kept apart here.

Columns and labels:
Torpedo maramorta AchR = Torpedo maramorta AchR (Torpedo marmorata, UniProt P02711); parameters: Relative Affinity: reference not given here; details: cited from earlier work
mice [1] = details: mouse, in vivo, sc
[2] = system: cell lines in tissue culture
mice [3] = details: mouse, in vivo

Compound	IC50 (Torpedo maramorta AchR) [µM]	Relative Affinity (Torpedo maramorta AchR)	Time to death (average) (mice [1]) [min]	Toxicity to cell lines [2]	IC50 (Torpedo maramorta AchR; read-out: IC50) [µM]	Paralysis in mice injected with the toxin (mice [3])
C[N+](C)(C)CCOC(N)=O.[Cl-] [Carbamylcholinechloride]	2800	0.09				
alpha cobratoxin		1,529.0	20.5	not toxic	0.17	very little or no paralysis
alpha Bungarotoxin		30,952.0			0.0084	
CN1CCCC1c1cccnc1 (stereo not drawn) [Nicotine]	1400	0.19				
COc1cc2c3cc1Oc1cc(ccc1O)C[C@@H]1c4c(cc(OC)c(O)c4Oc4ccc(cc4)C[C@@H]3N(C)CC2)CC[N+]1(C)C [d-Tubocurarine]		76.5			3.4	
C[N+](C)(C)CCOC(=O)CCCCCCC(=O)OCC[N+](C)(C)C.[I-].[I-] [Suderyldicholine]		104.0			2.5	
